Source: PMC10447287, “Optimisation of Pharmaceutical Cocrystal Dissolution Performance through a Synergistic Precipitation Inhibition” (Pharmaceutical Research, 2023)

Assay: FFA-NIC cocrystal solubility and phase solubility diagrams (PSD)
Assay type: physicochemical
Conditions: for FFA concentration at eutectic point / Ksp / SAB: 37°C
Description: For a 1:1 AB cocrystal without consideration of ionization of each component, its molar solubility SAB is calculated as [21]1 SAB=Ksp=CACB where Ksp is the solubility product of the AB cocrystal, and CA and CB (μmol/mL) are the molar concentrations of A and B where the solution is in equilibrium with the solid residues including cocrystal solids. When the solution is in equilibrium with both the drug and cocrystal solids, it is called the eutectic point where the component concentrations in solution are designated as CA_eut and CB_eut .
In order to determine the FFA-NIC cocrystal solubility, the physical mixtures of the FFA I and NIC solids and a constant 10 mL of the medium (i.e., DDW or PBS pH 4.5 in the absence and presence of a predissolved polymer, i.e., 0.2 mg/mL PVP-VA, 1 mg/mL PEG or 0.2 mg/mL SLP, or a combination, i.e., 0.2 mg/mL PVP-VA + 1 mg/mL PEG, 0.2 mg/mL PVP-VA + 0.2 mg/mL SLP), representing 10% w/w and 90% w/w of the total weight of a sample, were used. More than eight different ratios of the FFA I and NIC solids in the physical mixtures (Table S1 in the supporting materials) were prepared and then each of them was transferred into a 20 mL glass vial containing a magnetic stirrer (3 × 20 mm) with 10 mL of the solution prepared above. The samples were placed in the Polar Bear Plus Crystal (Cambridge Reactor Design Ltd, UK) and kept at 37 ± 0.5°C for 24 h. After that, the supernatant of each of the samples was separated from excess solids by centrifugation at 13,000 RPM for 1 min in an MSE Micro Centaur. HPLC was used to determine the concentrations of FFA and NIC. Solid residues obtained from the experiments were dried at room temperature and analysed by PXRD. If the FFA-NIC cocrystal solids were found in the solid residues of a sample ( i ), the molar concentrations of FFA ( CFFA,iexp ) and NIC ( CNIC,iexp ) (μmol/mL) obtained were used to determine the solubility product Ksp,iexp of FFA-NIC cocrystal by2 Ksp,iexp=CFFA,iexp×CNIC,iexp
The optimal solubility product Kspoptimal of FFA-NIC cocrystal is obtained by minimizing the sum square error (SSE) of the optimal value with each of the individual experimental values KSP,iexp .3 Kspoptimal=min∑i=1n(Kspoptimal-ksp,iexp)^2 where n is the total number of vials having the cocrystal solids in the residues.
In this work, the optimal value of Kspopitmal was obtained using the inbuilt “fminbnd” function in MATLAB. If both the FFA-NIC cocrystal and FFA I solids were found in the solid residues of a sample, the measured concentrations of FFA ( CFFAexp ) and NIC ( CNICexp ) were the transition concentrations at the eutectic point.

[1] = DDW with PEG (1 mg/mL) + PVP-VA (0.2 mg/mL)
[2] = DDW with SLP (0.2 mg/mL) + PVP-VA (0.2 mg/mL)
[3] = PBS pH 4.5 with PEG (1 mg/mL) + PVP-VA (0.2 mg/mL)
[4] = PBS pH 4.5 with PVP-VA (0.2 mg/mL)
[5] = PBS pH 4.5 with SLP (0.2 mg/mL)
[6] = PBS pH 4.5 with SLP (0.2 mg/mL) + PVP-VA (0.2 mg/mL)

## NC(=O)c1cccnc1.O=C(O)c1ccccc1Nc1cccc(C(F)(F)F)c1 [FFA-NIC cocrystal]
DDW with PEG (1 mg/mL)
  Ratio of FFA concentration at eutectic point with parent drug: 4.47
  FFA concentration at eutectic point: 0.16 µmol/mL
  Ksp: 136.09 μmol^2/mL^2
  SAB: 11.67 µmol/mL
[1]
  Ratio of FFA concentration at eutectic point with parent drug: 7.27
  Ratio of cocrystal solubility with parent drug: 4382.27
  FFA concentration at eutectic point: 0.26 µmol/mL
  Ksp: 156.76 μmol^2/mL^2
  SAB: 12.52 µmol/mL
DDW with PVP-VA (0.2 mg/mL)
  Ratio of FFA concentration at eutectic point with parent drug: 23.20
  Ratio of cocrystal solubility with parent drug: 4805.23
  FFA concentration at eutectic point: 0.83 µmol/mL
  Ksp: 171.89 μmol^2/mL^2
  SAB: 13.11 µmol/mL
DDW with SLP (0.2 mg/mL)
  Ratio of FFA concentration at eutectic point with parent drug: 4.47
  Ratio of cocrystal solubility with parent drug: 3218.49
  FFA concentration at eutectic point: 0.16 µmol/mL
[2]
  Ratio of FFA concentration at eutectic point with parent drug: 31.03
  Ratio of cocrystal solubility with parent drug: 6264.77
  FFA concentration at eutectic point: 1.11 µmol/mL
  Ksp: 224.10 μmol^2/mL^2
  SAB: 14.97 µmol/mL
DDW, pure solution
  Ratio of FFA concentration at eutectic point with parent drug: 6.71
  Ratio of cocrystal solubility with parent drug: 2649.04
  FFA concentration at eutectic point: 0.24 µmol/mL
  Ksp: 94.76 μmol^2/mL^2
  SAB: 9.73 µmol/mL
PBS pH 4.5, pure solution
  Ratio of FFA concentration at eutectic point with parent drug: 2.46
  Ratio of cocrystal solubility with parent drug: 1535.91
  FFA concentration at eutectic point: 0.16 µmol/mL
  Ksp: 99.78 μmol^2/mL^2
  SAB: 9.99 µmol/mL
PBS pH 4.5 with PEG (1 mg/mL)
  Ratio of FFA concentration at eutectic point with parent drug: 4.93
  Ratio of cocrystal solubility with parent drug: 1601.02
  FFA concentration at eutectic point: 0.32 µmol/mL
  Ksp: 104.01 μmol^2/mL^2
  SAB: 10.20 µmol/mL
[3]
  Ratio of FFA concentration at eutectic point with parent drug: 10.16
  Ratio of cocrystal solubility with parent drug: 2171.41
  FFA concentration at eutectic point: 0.66 µmol/mL
  Ksp: 141.26 μmol^2/mL^2
  SAB: 11.89 µmol/mL
[4]
  Ratio of FFA concentration at eutectic point with parent drug: 6.93
  Ratio of cocrystal solubility with parent drug: 2040.80
  FFA concentration at eutectic point: 0.45 µmol/mL
  Ksp: 132.58 μmol^2/mL^2
  SAB: 11.51 µmol/mL
[5]
  Ratio of FFA concentration at eutectic point with parent drug: 2.46
  Ratio of cocrystal solubility with parent drug: 1772.19
  FFA concentration at eutectic point: 0.16 µmol/mL
[6]
  Ratio of FFA concentration at eutectic point with parent drug: 10.16
  Ratio of cocrystal solubility with parent drug: 2443.18
  FFA concentration at eutectic point: 0.66 µmol/mL
  Ksp: 158.72 μmol^2/mL^2
  SAB: 12.60 µmol/mL
In DDW
  potential increase in the FFA solubility based on FFA concentration at eutectic point: 30 fold
In PBS pH 4.5
  potential increase in the FFA solubility based on FFA concentration at eutectic point: tenfold
In some cases, Table III
  increase of the FFA solubility achieved by cocrystal (by Eq. 1 cocrystal solubility): > 1000 fold
